{
  "source": "patent US10391201B2",
  "about": "“Gene therapy” (Ospedale San Raffaele S.r.l., priority 2014, dated 2019)",
  "assay_type_in_all_cases": "cell-based, human",
  "key": {"CD4+ T cells": {"system": "CD4+ T cells", "experiment": "SINLV-GFP lentiviral transduction of activated CD4+ T cells", "method": "(§1) CD4^+ T cells were activated in RPMI, supplemented with 10% FBS, penicillin (100 IU/mL), streptomycin (100 μg/mL), 2% glutamine, phytohaemagglutanin (PHA) (2 μg/mL, Roche) and IL-2 (300 IU/mL, Novartis) for three days and maintained in RPMI supplemented with 10% FBS, penicillin (100 IU/mL), streptomycin (100 μg/mL), 2% glutamine and IL-2 (300 UI/mL). Monocyte-derived macrophages (MDM) were differentiated from isolated CD14^+ monocytes in DMEM supplemented with 10% FBS, penicillin (100 IU/mL), streptomycin (100 μg/mL), 2% glutamine and 5% human serum AB (Lonza) for seven days.\n(§2) Human CB and BM-derived haematopoietic stem/progenitor cells (HSPC) were cultured in serum-free StemSpan medium (StemCell Technologies) supplemented with 100 ng/mL recombinant human stem cell factor (rhSCF), 20 ng/mL recombinant human thrombopoietin (rhTPO), 100 ng/mL recombinant human Flt3 ligand (rhFlt3) and 20 ng/mL recombinant human IL6 (rhIL6) (all from Peprotech) 16 to 24 hours prior to transduction. […] After transduction, cells were washed and maintained serum-free StemSpan supplemented with cytokines as above until the reading of GFP-positive (GFP+) cells by FACS. […]\n(§3) GFP expression in transduced cells was measured 5-7 days post-transduction. […]"}, "[1]": {"system": "monocyte-derived macrophages (MDM)", "experiment": "SINLV-GFP lentiviral transduction of monocyte-derived macrophages", "details": "MOI 1, 10 μM CsA or 10 μg/mL rapamycin, FACS 5 days", "method": "as §1, §2, §3"}, "IFNα": {"system": "IFNα", "experiment": "IFNα ELISA on supernatants of transduced CB-derived HSPC", "details": "CB-derived HSPC 24 hours after exposure (FIG. 26)", "method": "IFNα levels in supernatants from HSPC transduced in the presence of the agents. […] IFNα concentration was assessed using the VeriKine™ Human IFN Alpha ELISA Kit. HUVEC-10 cells were used as a positive control and the medium in which the cells were cultured as the negative control. Data represent the mean±SEM of three independent experiments.\nTo assess the secretion of human IFNα upon transduction of CB-derived HSPCs in the presence of the different compounds, supernatants from transduced cells were harvested 24 hours post-transduction and the IFNα concentration was assessed using the VeriKine™ Human IFN Alpha ELISA Kit (PBL interferon source, #41100) according to manufacturer's instructions."}, "[2]": {"system": "CB-derived CD34+ HSPC clonogenic progenitors", "experiment": "Colony-forming cell assay of transduced CB-derived CD34+ cells", "details": "MOI 10; plating of vital cells in methylcellulose (FIG. 21A)", "method": "Colony-forming cell assays were performed by plating 8×10^2 human cord blood-derived CD34^+ cells transduced with SINLV-GFP at a MOI of 10 in presence of the different compounds in a methylcellulose-based medium (Methocult GF4434, Stem Cell Technologies). 15 days later, colonies were scored by light microscopy for colony numbers and morphology. CFU-E and BFU-E were scored as erythroid colonies, while CFU-G, CFU-M, CFU-GM and CFU-GEMM as myeloid colonies.\nHuman differentiated cells from CFC were harvested from a single plate (pool of colonies) and mixed into a single cell suspension. Cells were then washed and resuspended in PBS containing 2% FBS. For immunostaining, cells were incubated with anti-human receptor blocking antibodies for 15 min at 4° C. and then stained for 20 min at 4° C. with anti-human CD235a and CD33 antibodies (for antibodies, see Table 1). To exclude dead cells from the analysis, cells were washed and resuspended in PBS containing 10 ng/mL 7-aminoactinomycin D (7-AAD)."}, "BM-derived CD34+ cells": {"system": "BM-derived CD34+ cells", "experiment": "γ-retroviral SINRV-GFP transduction of BM-derived CD34+ cells", "details": "BM-derived HSPC; MOI of 10 (FIG. 24)", "method": "A, B. The percentage of GFP+ cells was evaluated by FACS five days after transduction. Data represent the mean±SEM of four independent experiments.\nThird generation lentivirus (LV) stocks were prepared, concentrated and titred as previously described (Dull, T. et al. (1998) J. Virol. 72: 8463-71; Follenzi, A. et al. (2000) Nat. Genetics 25: 217-22). […]. Bald vector, a normal LV produced by omitting the Env-encoding plasmid during vector production, was produced as a negative control. During vector production, the Env construct was substituted by pcDNA3.1 (Invitrogen Inc.). […]\nas §2"}},
  "data": [
    {"compound": "CO[C@H]1C[C@@H]2CC[C@@H](C)[C@@](O)(O2)C(=O)C(=O)N2CCCC[C@H]2C(=O)O[C@H]([C@H](C)C[C@@H]2CC[C@@H](O)[C@H](OC)C2)CC(=O)[C@H](C)/C=C(\\C)[C@@H](O)[C@@H](OC)C(=O)[C@H](C)C[C@H](C)/C=C/C=C/C=C/1C", "note": "[rapamycin, Rapamycin]", "values": [
      {"measurement": "impact on transduction among the different CA mutants", "setting": "CD4+ T cells; CA mutant SINLVs MOI 1", "value": "did not vary"},
      {"measurement": "impact on LV transduction efficiency (in words)", "setting": "CD4+ T cells; MOI 1, 20 μm FK506 or 10 μg/mL rapamycin", "value": "a similar trend was observed"},
      {"measurement": "decrease in GFP+ cells (transduction)", "setting": "[1]", "value": 2.8, "unit": "fold"},
      {"measurement": "IFNα secretion", "setting": "IFNα", "value": "no detectable levels"},
      {"measurement": "number of total, CFU-GM (myeloid) and BFU-E (erythroid) colonies", "setting": "[2]", "value": "No significant differences"},
      {"measurement": "percentage of GFP+ cells with γ-retroviral SINRV", "setting": "BM-derived CD34+ cells", "value": "neither compound was able to significantly increase"}
    ]}
  ]
}
